These results are taken from PMC11558679, “Artificial Zymogen Based on Protein–Polymer Hybrids” (Biomacromolecules, 2024).

Holding throughout (assay type): biochemical, bovine
The target of one data set is T1, native chymotrypsin (Bos taurus, UniProt P00766).
T1 construct: α-Chymotrypsin from bovine pancreas, Type II (CT); purchased Sigma-Aldrich; host or cells: bovine pancreas
The experiment in a line: Inhibition of native chymotrypsin by model peptide inhibitor and macromonomer. The following applies: for KM/Vmax / apparent Vmax / kcat / kcat/KM / Km: [sucAAPFpNA]0 = 0–768 µM; for Km: read-out: apparent KM. The text has this: Co mparison of K M of peptide substrates and K i of model peptide inhibitors and ma cro mono mers against native trypsin and chymotrypsin.
By observing the initial rate of enzyme activity in the presence of th e peptide inhibitor or macromonomer, the K i value of the inhibitor peptide and macromonomers can be determined (Figures S9 for native trypsin,and S14 for native ch ymotrypsin). The apparent KM and Vmax values are obtained b y si multaneousl y mixing nat ive trypsin or ch ymotr ypsin, a peptide substrat e, and a peptide inhibitor, and then monitoring the pNA produced b y enzymatically catal yzed hydrol ysis of the p eptide substrate. The apparent KM and Vmax values were calculated using EnzFitter with Michaelis-Menten curve fitting of substrate against initial velocity plots ( Fi g u re S10 and S12 and Table S1 and S2 for native trypsin, and Figure S15 and S17 and T ab l e S3 and S4 for native ch ymotr ypsin ). The plot of K M ass/Vma x app versus [I]0 or [macromonomers]0 yields a straight line with a y-intercept of K M/Vmax and a slope of K M/(Vmax ·Ki) (Figures S11 and S13 for native tr ypsin and S1 6 and S18 for native ch ymotrypsin, respsctiver y ). The inhibition constant (Ki) of the peptide inhibi tor or macromonomer was calculated b y simply dividing the y -inter cept […]
Figure S1 5 .Michaelis -Menten Plots adding a peptide inhibitor to a native c hymot r yps i n s ol ut i on.
Table S3. Apparent KM a nd Vma x values for native […] incubated with suc-AAPF -pNA ( subst r at e) and IB -AAPFSar-OMe (inhibitor) at 37 °C in 100 mM sodium phosphate buffer (pH 8.0) […]
Buffer: 100 mM sodium phosphate (pH 8.0) at 37 °C, [CT]0 = 40 nM, [sucAAPFpNA]0 = 0 – 768 µ M and [IBAAPFSarOMe]0 = 0 – 500 µM, Monitor Abs at 412 nm.
Table S4. Apparent KM a nd Vma x values for native […] incubated with suc-AAPF -pNA ( subst r at e) and macromonomer containing a TR cleavable and CT inhibiting peptides
(IBAAPFSarPEG4GPRGGOEGMA) at 37 °C in 100 mM sodium phosphate buffer (pH 8.0) . […]
macro mono mer]0 = 0 – 400 µM, Monitor Abs at 412 nm.
Figure S18. Michaelis -Menten Plots adding a macromonomer containing a TR cleavable and CT inhibiting peptides (IBAAPFSarPEG4GPRGGOEGMA) to a native chymotrypsin solution.

A short description of data set [1]: Biocatalytic assay (Michaelis–Menten) of TR and TR hybrids with Tos-Gly-Pro-Arg-pNA. The method, then: N-Tosyl-L-Gly-L-Pro-L-Arg-p-nitroanilide was used as a substrate for enzyme bioactivity assays. In a cuvette, 0.1 M Tris HCl and 20 mM calcium chloride buffer (890–990 μL, pH 8.0), substrate (0–100 μL, 2 mg/mL in DMSO), and enzyme (10 μL, 0.02 mg TR/mL in 100 mM Tris–HCl and 20 mM calcium chloride (pH 8.0), 8.4 nM as final concentration) were mixed for enzyme bioactivity assays. The rate of hydrolysis was determined by recording the increase in absorbance at 412 nm for the first 45 s after mixing. KM and kcat values were calculated using Enzfitter software when plotting substrate concentration versus initial hydrolysis velocity. […]
Table S5. Char acterization and enzymatic activity of TR-pCBMA and inhibited pro- T R pol ymer h ybr i ds with different linkers between the inhibitory and cleavable peptide moieties.
SEC-M ALLS anal ysi s Michaelis-Menten parameters d
Mnb Mwb Đb DPc KM kcat kcat/KM samples kg mol-1 kg mol-1 (CBM A/inhibitor) (µM) (s-1) (µM-1 s-1) […]
SEC -MALLS and 1H NMR spectra. d conditions: [TR]0 = 8.4 nM, [Tos-GPR-pNA]0 = 0 - 302 µM, buffer 100 mM Tris-HCl and 20 mM CaCl2 (pH 8.0) at 37 °C. […]

The nature of data set [2]: Biocatalytic assay (Michaelis–Menten) of CT and CT hybrids with suc-Ala-Ala-Pro-Phe-pNA. The method, then:
N-Succinyl-L-Ala-L-Ala-L-Pro-L-Phe-p-nitroanilide was used as a substrate for enzyme bioactivity assays. In a cuvette, 0.1 M sodium phosphate buffer (910–990 μL, pH 8.0), substrate (0–80 μL, 6 mg/mL in DMSO), and enzyme (10 μL, 0.1 mg CT/mL in 0.1 M sodium phosphate buffer (pH 8.0), 40 nM as final CT concentration) were mixed. The rate of hydrolysis was determined by recording the increase in absorbance at 412 nm for the first 45 s after mixing. KM and kcat values were calculated using the Enzfitter software when plotting substrate concentration versus initial hydrolysis velocity.

Setting [3] is: [CT]0 = 40 nM, [suc-AAPFpNA]0 = 0–960 μM, 100 mM sodium phosphate (pH 8.0), 37 °C, absorbance 412 nm, first 45 s, Enzfitter.
[4] abbreviates: [TR]0 = 8.4 nM, [Tos-GPR-pNA]0 = 0–302 μM, 100 mM Tris–HCl and 20 mM CaCl2 (pH 8.0), 37 °C, absorbance 412 nm, first 45 s, Enzfitter.
Setting [5] is: [TR]0 = 8.4 nM, [Tos-GPR-pNA]0 = 0–302 μM, 100 mM Tris–HCl and 20 mM CaCl2 (pH 8.0), 37 °C, absorbance 412 nm, first 45 s, Enzfitter, read-out: KM.

Where “and” joins values, the source holds several entries; their conditions need not be identical. Identical values can stand only once. Like-named read-outs stand apart in the source and are kept apart here.

What is called Km is the substrate concentration at which the rate is half of its maximum. In the case of “IB-Ala-Ala-Pro-Phe-Sar-PEG4-Gly-Pro-Arg-Gly-Gly-OEGMA [IBAAPFSarPEG4GPRGGOEGMA]”, at native chymotrypsin ([macromonomer]0 = 100 µM), the KM/Vmax is listed as 61.8 ± 6.2 s, the “apparent Vmax” value stood at 1.25 ± 0.03 µM/s, the kcat was found to be 34.8 ± 0.8 s⁻¹ and the kcat/KM is 450000 ± 50000 M⁻¹ s⁻¹. For the same molecule, the Km at native chymotrypsin ([macromonomer]0 = 100 µM) is 77.5 ± 7.6 µM. At native chymotrypsin ([macromonomer]0 = 200 µM), the KM/Vmax was 65.3 ± 6.9 s, the “apparent Vmax” value is 1.25 ± 0.03 µM/s, the kcat came to 34.9 ± 0.8 s⁻¹ and the kcat/KM is 430000 ± 40000 M⁻¹ s⁻¹. Moreover, the Km on native chymotrypsin ([macromonomer]0 = 200 µM) is 82.1 ± 8.4 µM. Moreover, on native chymotrypsin ([macromonomer]0 = 300 µM), the KM/Vmax amounted to 72.9 ± 7.1 s, the “apparent Vmax” value was 1.18 ± 0.03 µM/s, the kcat is 32.8 ± 0.7 s⁻¹ and the kcat/KM amounted to 380000 ± 730000 M⁻¹ s⁻¹. Besides, the Km at native chymotrypsin ([macromonomer]0 = 300 µM) was 86.1 ± 8.1 µM. In addition, at native chymotrypsin ([macromonomer]0 = 400 µM), the KM/Vmax was found to be 89.4 ± 11.8 s, the “apparent Vmax” value is 1.12 ± 0.04 µM/s, the kcat was 31.0 ± 1.0 s⁻¹ and the kcat/KM was determined as 310000 ± 40000 M⁻¹ s⁻¹. At native chymotrypsin ([macromonomer]0 = 400 µM), the Km came out at 99.7 ± 12.6 µM. The “Ki relative to KM (90 μM) of suc-Ala-Ala-Pro-Phe-pNA” value at native chymotrypsin (native CT) was determined as 2.8 fold. The Ki with native chymotrypsin (native CT, substrate suc-AAPF-pNA, 100 mM sodium phosphate (pH 8.0), 37 °C, [CT]0 = 40 nM, from secondary plot KM/Vmax app vs [I]0, read-out: Ki) stood at 260 µM.
As to “N-Tosyl-glycyl-L-prolyl-L-arginine p-nitroanilide acetate salt [Tos-Gly-Pro-Arg-pNA, reference compound]”, in data set [1] (rounded value in comparison with Ki, read-out: KM of the peptide substrate for native TR), the Km amounted to 20 µM.
As to “N-succinyl-L-Ala-L-Ala-L-Pro-L-Phe-p-nitroanilide [suc-Ala-Ala-Pro-Phe-pNA, reference compound]”, the Km in data set [2] (rounded value in comparison with Ki, read-out: KM of the peptide substrate for native CT) turned out to be 90 µM.
Turning to “α-Chymotrypsin from bovine pancreas, Type II [native CT]”, in data set [2] (setting [3]), the kcat came out at 43.6 s^–1; the kcat/KM is 0.484 μM^–1 s^–1 and 0.484 ± 0.069 μM^–1 s^–1. Further, the Km in data set [2] ([CT]0 = 40 nM, [suc-AAPFpNA]0 = 0–960 μM, 100 mM sodium phosphate (pH 8.0), 37 °C, absorbance 412 nm, first 45 s, Enzfitter, read-out: KM) stood at 90.1 ± 12.5 µM.

B1: TR-pCBMA hybrid: control without inhibitory domain; poly(CBMA) exclusively grafted from TR (conjugate, UniProt P00760 24-246, looked up)
Serine protease 1: IVGGYTCGANTVPYQVSLNSGYHFCGGSLINSQWVVSAAHCYKSGIQVRLGEDNINVVEGNEQFISASKSIVHPSYNSNTLNNDIMLIKLKSAASLNSRVASISLPTSCASAGTQCLISGWGNTKSSGTSYPDVLKCLKAPILSDSSCKSAYPGQITSNMFCAGYLEGGKDSCQGDSGGPVVCSGKLQGIVSWGSGCAQKNKPGVYTKVCNYVSWIKQTIASN
modifications: poly(CBMA) grafted
Consider B1, for which the kcat in data set [1] (setting [4]) is 45.7 ± 1.1 s^–1. Moreover, the kcat/KM in data set [1] (setting [4]) was 2.43 ± 0.36 μM^–1 s^–1; in data set [1] ([TR]0 = 8.4 nM, [Tos-GPR-pNA]0 = 0–302 μM, 100 mM Tris–HCl and 20 mM CaCl2 (pH 8.0), 37 °C, absorbance 412 nm, first 45 s, Enzfitter, listed as TR-pCBMA), 2.43 ± 0.36 μM^–1 s^–1 and 2.43 μM^–1 s^–1; in data set [2] (setting [3]), 0.292 μM^–1 s^–1. For the same molecule, the Km in data set [1] (setting [5]) turned out to be 18.8 ± 2.8 µM.

B2: trypsin from bovine pancreas, Type I (protein, UniProt P00760 24-246, looked up)
Serine protease 1: B1 Serine protease 1
notes: trypsin from bovine pancreas, Type I (TR), Sigma-Aldrich
With B2, in data set [1] (setting [4]), the kcat was 63.5 s^–1 and 63.5 ± 1.3 s^–1; the kcat/KM came out at 2.87 ± 0.25 μM^–1 s^–1. Moreover, the Km in data set [1] (setting [5]) was 22.2 ± 1.9 µM.
